Assay results: ChEMBL document CHEMBL5321208, “The effect of side chain variations on quinazoline-pyrimidine G-quadruplex DNA ligands” (Eur J Med Chem, 2023)
Calls of active or inactive are those of the source. The calls are words filed in the database; no cut-off is given here.

Tested on: dsDNA
Test: Binding affinity to double stranded DNA (unknown origin) assessed as thermal stabilization at 1 to 8 uM measured at 10 to 95 degreeC by FRET analysis
Format: nucleic-acid assay
Conditions: dose 1-8 µM

Activity	SMILES
inactive	Cc1cc(N2CCNCC2)nc(Nc2nc(C)c3ccc4c(c3n2)CCC4)n1
inactive	Cc1cc(N2CCNCC2)nc(Nc2nc(C)c3ccc4c(c3n2)CCCC4)n1

Continued, compound first:

SMILES	Activity
Cc1cc(N2CCN(C(=O)OC(C)(C)C)CC2)nc(Nc2nc(C)c3ccc4c(c3n2)CCCC4)n1	inactive
Cc1cc(NCCN2CCN(C)CC2)nc(Nc2nc(C)c3ccc4c(c3n2)CCC4)n1	inactive
Cc1cc(NCCN2CCOCC2)nc(Nc2nc(C)c3ccc4c(c3n2)CCC4)n1	inactive
Cc1cc(N2CCN(c3ncccn3)CC2)nc(Nc2nc(C)c3ccc4c(c3n2)CCCC4)n1	inactive
Cc1cc(N2CCOCC2)nc(Nc2nc(C)c3ccc4c(c3n2)CCCC4)n1	inactive

Tested on: not listed separately
Test: Cytotoxicity against wildtype C57BL/6J mouse cancer activated fibroblast cells assessed as inhibition of cell growth incubated for 5 days by resazurin dye based fluorescence microscopic analysis
Format: toxicity
Conditions: not given

SMILES	IC50 at 5 days [nM]
Cc1cc(NCCN2CCN(C)CC2)nc(Nc2nc(C)c3ccc4c(c3n2)CCC4)n1	> 500

Tested on: Quadruplex DNA
Test: Binding affinity to FAM/TAMRA-labelled parallel KRAS G4 DNA (unknown origin) assessed as thermal stabilization at 1 to 8 uM measured at 10 to 95 degreeC by FRET analysis
Format: nucleic-acid assay
Conditions: dose 1-8 µM

Activity	SMILES
Active	Cc1cc(N2CCNCC2)nc(Nc2nc(C)c3ccc4c(c3n2)CCC4)n1
Active	Cc1cc(N2CCNCC2)nc(Nc2nc(C)c3ccc4c(c3n2)CCCC4)n1

Second part, the compound before the results:

SMILES	Activity
Cc1cc(N2CCN(C(=O)OC(C)(C)C)CC2)nc(Nc2nc(C)c3ccc4c(c3n2)CCCC4)n1	inactive
Cc1cc(NCCN2CCN(C)CC2)nc(Nc2nc(C)c3ccc4c(c3n2)CCC4)n1	Active
Cc1cc(N2CCN(c3ncccn3)CC2)nc(Nc2nc(C)c3ccc4c(c3n2)CCCC4)n1	inactive

Tested on: not listed separately
Test: Antitumor activity against KPC mouse pancreatic cancer organoid expressing lentiviral modified GFP co-cultured with WT C57BL/6J mouse pancreatic stellate cells expressing mKate2 assessed as inhibition of cell growth incubated for 5 days by resazurin dye based fluorescence microscopic analysis
Format: functional, tissue-based
Conditions: 120 h

SMILES	IC50 [nM]
Cc1cc(NCCN2CCN(C)CC2)nc(Nc2nc(C)c3ccc4c(c3n2)CCC4)n1	547

Tested on: Quadruplex DNA
Test: Binding affinity to FAM/TAMRA-labelled parallel c-MYC Pu24T G4 DNA (unknown origin) assessed as thermal stabilization at 1 to 8 uM measured at 10 to 95 degreeC by FRET analysis
Format: nucleic-acid assay
Conditions: dose 1-8 µM

Activity	SMILES
Active	Cc1cc(N2CCNCC2)nc(Nc2nc(C)c3ccc4c(c3n2)CCC4)n1
Active	Cc1cc(N2CCNCC2)nc(Nc2nc(C)c3ccc4c(c3n2)CCCC4)n1

The next lines start with the compound.

SMILES	Activity
Cc1cc(N2CCN(C(=O)OC(C)(C)C)CC2)nc(Nc2nc(C)c3ccc4c(c3n2)CCCC4)n1	inactive
Cc1cc(NCCN2CCN(C)CC2)nc(Nc2nc(C)c3ccc4c(c3n2)CCC4)n1	Active
Cc1cc(N2CCN(c3ncccn3)CC2)nc(Nc2nc(C)c3ccc4c(c3n2)CCCC4)n1	inactive
